Test [1] concerns Plasmodium falciparum. Put plainly: In vitro inhibition of Plasmodium falciparum K1 (S108N + C59R) culture. In kind it is functional, organism-based.
Test [2] has as its system Plasmodium falciparum. Put plainly: In vitro inhibition of Plasmodium falciparum HB3 (S108N) culture. In kind it is functional, organism-based.
The target in test [3] is T1, Bifunctional dihydrofolate reductase-thymidylate synthase (Plasmodium falciparum K1, UniProt P13922). The experiment in a line: Binding affinity was evaluated as inhibition of mutant (C59R + S108N) Plasmodium falciparum DHFR-TS.
Target sequence in this assay (P13922 whole entry): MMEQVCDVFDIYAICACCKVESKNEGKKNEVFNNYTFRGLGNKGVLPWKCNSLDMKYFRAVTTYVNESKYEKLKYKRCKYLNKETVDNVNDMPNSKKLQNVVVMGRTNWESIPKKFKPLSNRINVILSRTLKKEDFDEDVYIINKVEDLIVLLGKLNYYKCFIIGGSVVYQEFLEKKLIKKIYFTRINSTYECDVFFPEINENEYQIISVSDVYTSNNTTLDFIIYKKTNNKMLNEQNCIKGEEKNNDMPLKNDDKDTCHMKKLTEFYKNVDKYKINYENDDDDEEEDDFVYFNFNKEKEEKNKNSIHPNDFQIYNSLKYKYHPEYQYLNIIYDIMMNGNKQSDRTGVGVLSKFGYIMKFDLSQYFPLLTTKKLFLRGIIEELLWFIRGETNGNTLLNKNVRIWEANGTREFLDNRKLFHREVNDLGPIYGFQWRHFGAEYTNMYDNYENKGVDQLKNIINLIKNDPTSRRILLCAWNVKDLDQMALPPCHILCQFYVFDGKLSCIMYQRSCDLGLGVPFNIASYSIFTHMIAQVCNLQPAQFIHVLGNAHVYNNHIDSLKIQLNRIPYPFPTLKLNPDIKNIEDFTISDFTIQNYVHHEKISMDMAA
Test [4] addresses T1, Bifunctional dihydrofolate reductase-thymidylate synthase. Put plainly: Binding affinity was evaluated as inhibition of recombinant wild type (WT) Plasmodium falciparum DHFR-TS.
Target sequence in this assay (P13922 whole entry): as above
Test [5] is described as follows: Ratio of inhibitions against mutant and wild type (WT) Plasmodium falciparum DHFR-TS.
The target in test [6] is T1, Bifunctional dihydrofolate reductase-thymidylate synthase. Put plainly: Inhibitory activity against mutant Plasmodium falciparum DHFR-TS.
Target sequence in this assay (P13922 whole entry, looked up): as the sequence (P13922 whole entry) above
For test [7] the target is unchanged. Put plainly: Inhibitory activity against recombinant wild type (WT) Plasmodium falciparum DHFR-TS.
Target sequence in this assay (P13922 whole entry): as above

Regarding `CCc1nc(N)nc(N)c1-c1ccc(Cl)cc1` [PYRIMETHAMINE], the IC50 in the test with Plasmodium falciparum [1] turned out to be 10.2 nM; in the test with Plasmodium falciparum [2], 1.2 nM.

On to `CC1(C)N=C(N)N=C(N)N1c1ccc(Cl)cc1` [CYCLOGUANIL], for which the Ki was determined as 82.1 nM in test [3] and 2.6 nM in test [4]. Further, the Ratio in test [5] came out at 31.5.

Turning to `NC(=O)c1ccc[n+]([C@H]2O[C@@H](COP(=O)([O-])OP(=O)(O)OC[C@H]3O[C@@H](n4cnc5c(N)ncnc54)[C@H](OP(=O)(O)O)[C@@H]3O)[C@H](O)[C@@H]2O)c1` [NICOTINAMIDE ADENINE DINUCLEOTIDE PHOSPHATE], the Ki in test [3] stood at 14.5 nM; in test [4], 4.7 nM. Also, in test [5], the Ratio was found to be 3.09.

In the case of `CCc1nc(N)nc(N)c1-c1cccc(OC)c1`, the IC50 in test [6] was found to be 73 nM; in test [7], 9.3 nM; in the test with Plasmodium falciparum [1], 3.7 nM; in the test with Plasmodium falciparum [2] it was 0.2 nM. Moreover, the Ki in test [6] was 14 nM; in test [3] it was 14 nM; in test [4] it was 1.07 nM. For the same compound, the Ratio in test [5] was 13.1.

Regarding `CCc1nc(N)nc(N)c1-c1cccc(Cl)c1`, the IC50 came to 12.7 nM in test [6] and 2.7 nM in test [7]. Further, the Ki in test [3] is 2.4 nM; in test [4], 0.3 nM. The Ratio in test [5] worked out at 8.

By IC50 is commonly meant the concentration that inhibits the measured activity by half. As a reminder, the Ki is the dissociation constant of the complex between target and ligand, obtained from inhibition or displacement.

Values taken from ChEMBL document CHEMBL1131602 (J Med Chem, 1998).
